Experiment: solubility of the reactive azo compounds in toluene (weight percent solubility)
Type: physicochemical
Conditions: for WPS (weight percent solubility in toluene): heated to boil, cooled to room temperature, filtered (0.45 μm), dry residue mass / filtrate mass; for solubility in toluene relative to compounds of similar structure (in words): comparison of methyl ester comparative compounds with the yellow azo compounds of the invention
Method: The solubilites of the reactive azo compounds of Examples 1, 2, 3 and 4 and Comparative Examples 1, 2 and 3 (C-1, C-2 and C-3) in toluene were determined according to the following procedures: A sample (0.2 g) of each compound was added to a screw top vial followed by the addition of toluene (0.5 mL for each vial containing the reactive azo compound of Examples 1, 3, 4 or C-3; 1.0 mL for Examples 2 or C-1; 1.5 mL for Example C-2. Each vial was capped and heated until the solution or mixture began to boil. Each solution or mixture then was allowed to cool to room temperature. Various amounts of toluene were required to give a filterable solution or suspension upon cooling. The solutions or suspensions of the azo compounds were filtered (0.45 μm nylon membrane with glass microfiber prefilter, Autovial®, Whatman Inc.) to give homogenous solutions (filtrates). Each filtered solution was weighed and the toluene solvent was removed under reduced pressure to give the mass of dry residue of each azo compound dissolved in the toluene solvent. The weight percent solubility of each azo compound is defined as [formula]
wherein WPS is the weight percent solubility for each azo compound in toluene and Dry Azo Compound Residue and Toluene Solution Filtrate are produced as described above. The results of the toluene solubility evaluations are shown in Table II wherein Azo compound refers to the example in which the reactive azo compound and its preparation is described.

Row | Structure (SMILES) | WPS (weight percent solubility in toluene) [weight percent] | solubility in toluene relative to compounds of similar structure (in words)
1 | C=C(C)c1cccc(C(C)(C)NC(=O)OCCn2c(O)c(/N=N/c3ccccc3C(=O)OCC(CC)CCCC)c(C)c(C#N)c2=O)c1 (stereo not shown) [Example 1] | 37.5 | 
2 | C=C(C)C(=O)OCCn1c(O)c(/N=N/c2ccccc2C(=O)OCC(C)C)c(C)c(C#N)c1=O [Example 2] | 18.6 | 
3 | C=C(C)C(=O)OCCn1c(O)c(/N=N/c2ccccc2C(=O)OCC(CC)CCCC)c(C)c(C#N)c1=O (stereo not shown) [Example 3] | 33.3 | 
4 | C=C(C)C(=O)OCCn1c(O)c(/N=N/c2ccccc2C(=O)OCCOCC)c(C)c(C#N)c1=O [Example 4] | 35.5 | 

Results, then the compound that gave them:

Row | WPS (weight percent solubility in toluene) [weight percent] | solubility in toluene relative to compounds of similar structure (in words) | Structure (SMILES)
5 | 8.8 | much lower | C=C(C)c1cccc(C(C)(C)NC(=O)OCCn2c(O)c(/N=N/c3ccc(C(=O)OC)cc3)c(C)c(C#N)c2=O)c1 [Example C-1]
6 | 2.3 | much lower | C=C(C)c1cccc(C(C)(C)NC(=O)OCCn2c(O)c(/N=N/c3ccccc3C(=O)OC)c(C)c(C#N)c2=O)c1 [Example C-2]
7 | 11.1 | much lower | C=C(C)C(=O)OCCn1c(O)c(/N=N/c2ccccc2C(=O)OC)c(C)c(C#N)c1=O [Example C-3]

— patent US20070207331A1, “Azo compounds and coating compositions containing the azo compounds” (priority 2006, published 2007)
